US6566355B1 (Hoffmann-La Roche Inc., priority 1991, dated 2003)
Where a name gives a salt, the structure may show the parent alone.

What follows are molecules tested against T1, β-lactamase (Citrobacter freundii, UniProt P05193) (assay: biochemical). Conditions: not given.
T1 construct: Various β-lactamases can be isolated from penicillin- or cephalosporin-resistant bacterial strains such as; endogenous in cells; host or cells: Citrobacter freundii 1203 (enzyme purified from the crude cell extract, after ampicillin induction when necessary)
Description: A. Isolation of the β-lactamases
Various β-lactamases can be isolated from penicillin- or cephalosporin-resistant bacterial strains such as Klebsiella pneumoniae NCTC 418, Proteus vulgaris 1028, Bacillus licheniformis 749/C, Escherichia coli SN01 and Citrobacter freundii 1203. For this purpose, the corresponding strains are cultivated in Tryptic Soy Broth (Difco) and harvested by centrifugation in the last logarithmic growth phase (when necessary 50-100 mg/l of ampicillin are added to the medium towards the end of the log-phase in order to induce the β-lactamase). The thus-obtained bacterial mass is treated with 20 mM Tris-HCl buffer (pH 7.0); the cells are broken open with a French press while cooling. The mixture is centrifuged (20,000 r/min.) for 20-30 minutes and a clear crude extract is obtained.
B. Determination of the β-lactamase activity
The determination of the activity of the isolated β-lactamases can be carried out according to the method of O'Callaghan, C. H. et al. [Antimicr. Ag. Chemother., 1, 283-288 (1972)] using the chromogenic cephalosporin nitrocefin (87/312 from Glaxo). The requisite test batch contains per ml of water: 50 mM phosphate buffer (pH 7.0), 0.1 mM nitrocefin and sufficient enzyme (β-lactamase) to achieve a ΔA/min. of about 0.1. The cleavage of the substrate, which is accompanied by a change in colour, is effected at 37° C. and is followed quantitatively at 482 nm using a spectral photometer.
C. Determination of the β-lactamase-inhibiting activity of the compounds of general formula I
The above-described cleavage of the chromogenic substrate by β-lactamases (test B.) can be inhibited by the addition of compounds of general formula I (inhibitors). […] As a measurement for the affinity of the particular tested inhibitor to the β-lactamase, which is a measurement of the strength of the inhibitor, there serves that concentration which inhibits by 50% (IC 50 in nM) the cleavage of the substrate (nitrocefin) effected under the above test conditions (test B) in the absence of an inhibitor. […] The determination of the IC50 was effected by means of a graph.
(Test organism: Citrobacter freundii)

T1 sequence (P05193 21-381): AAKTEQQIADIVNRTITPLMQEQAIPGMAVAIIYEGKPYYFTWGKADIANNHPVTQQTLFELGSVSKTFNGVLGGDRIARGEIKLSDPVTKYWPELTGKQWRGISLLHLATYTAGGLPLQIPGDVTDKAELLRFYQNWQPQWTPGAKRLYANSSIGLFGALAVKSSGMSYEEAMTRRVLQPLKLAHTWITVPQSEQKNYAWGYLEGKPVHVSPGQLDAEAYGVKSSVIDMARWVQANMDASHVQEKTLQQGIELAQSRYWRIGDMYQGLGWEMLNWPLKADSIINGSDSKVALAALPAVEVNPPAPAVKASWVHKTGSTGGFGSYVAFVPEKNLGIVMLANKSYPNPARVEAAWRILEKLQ

`O=C(O)C(C(=O)N1CC[C@@H]2[C@H]1C(=O)N2S(=O)(=O)O)c1ccsc1` (mixture of isomers) [6(e), (R/S)-α-(1S,5R)-2-[2-carboxy-2-(3-thienyl)acetyl]-7-oxo-2,6-diazabicyclo[3.2.0]heptane-6-sulphonic acid triethylamine salt (1:1)] and `O=C(NCc1cccs1)N1CC[C@@H]2[C@H]1C(=O)N2S(=O)(=O)O` [17(p), (1S,5R)-2-(2-Thien-2-ylmethylcarbamoyl)-7-oxo-2,6-diazabicyclo[3.2.0]heptane-6-sulphonic acid sodium salt] are within 1.5-fold of each other in IC50: 465 nM for the first, 383 nM for the second.

Going from `O=C(NCC(=O)N1CC[C@@H]2[C@H]1C(=O)N2S(=O)(=O)O)OCc1ccccc1` [4(g), Benzyl[[[(1S,5R)-7-oxo-6-sulpho-2,6-diazabicyclo[3.2.0]-hept-2-yl]carbonyl]methyl]carbamate] to `O=C(NC1CC1)N1CC[C@@H]2[C@H]1C(=O)N2S(=O)(=O)O` [17(i), (1S,5R)-2-Cyclopropylcarbamoyl)-7-oxo-2,6-diazabicyclo[3.2.0]heptane-6-sulphonic acid sodium salt], the IC50 falls from 390 nM to 245 nM (1.6-fold).

Compared with `O=C(NC1CCC1)N1CC[C@@H]2[C@H]1C(=O)N2S(=O)(=O)O` [17(h), (1S,5R)-2-Cyclobutylcarbamoyl)-7-oxo-2,6-diazabicyclo[3.2.0]heptane-6-sulphonic acid sodium salt], `O=C1SCC[C@@H]1NC(=O)N1CC[C@@H]2[C@H]1C(=O)N2S(=O)(=O)O` [17(t), (1S,5R)-7-Oxo-2-(S)-(2-oxo-3-tetrahydrothienyl-carbamoyl)-2,6-diazabicyclo[3.2.0]heptane-6-sulphonic acid sodium salt] is 2.7-fold lower in IC50: 145 nM for the first, 53 nM for the second.

Same assay, conditions: IC 50 nM, isolated β-lactamase of Citrobacter freundii; substrate nitrocefin 0.1 mM; 15 minutes pre-incubation with inhibitor; 37° C., pH 7.0

First: O=C(CNc1ccc2c(C(F)(F)F)cc(=O)oc2c1)N1CC[C@@H]2[C@H]1C(=O)N2S(=O)(=O)O [5(n), (1S,5R)-2-[N-[2-Oxo-4-(trifluoromethyl)-2H-1-benzopyran-7-yl]glycyl]-7-oxo-2,6-diazabicyclo[3.2.0]heptane-6-sulphonic acid sodium salt]
Second: O=C(Nc1cccc(O)c1)N1CC[C@@H]2[C@H]1C(=O)N2S(=O)(=O)O [17(s), (1S,5R)-2-(3-Hydroxyphenylcarbamoyl)-7-oxo-2,6-diazabicyclo[3.2.0]heptane-6-sulphonic acid sodium salt]
The IC50 of the first is 1.8-fold higher: 67 nM for the first, 38 nM for the second.

First: O=C(/C=C/c1ccc(O)cc1)N1CC[C@@H]2[C@H]1C(=O)N2S(=O)(=O)O [6(t), (1S,5R)-(E)-2-[3-(4-Hydroxy-phenyl)acryloyl]-7-oxo-2,6-diazabicyclo[3.2.0]heptane-6-sulphonic acid sodium salt]
Second: O=C(Nc1ccc(O)cc1)N1CC[C@@H]2[C@H]1C(=O)N2S(=O)(=O)O [17(w), (1S,5R)-2-(4-Hydroxyphenylcarbamoyl)-7-oxo-2,6-diazabicyclo[3.2.0]heptane-6-sulphonic acid sodium salt]
The IC50 of the first is 9.1-fold lower: 12 nM for the first, 109 nM for the second.

Going from `Nc1nnc(SCC(=O)Nc2nnc(SCC(=O)N3CC[C@@H]4[C@H]3C(=O)N4S(=O)(=O)O)s2)s1` [6(w), (1S,5R)-2-[5-(5-Amino-1,3,4-thiadiazol-2-ylsulfanylacetylamino)-1,3,4-thiadiazol-2-ylsulfanylacetyl]-7-oxo-2,6-diazabicyclo[3.2.0]heptane-6-sulfonic acid sodium salt] to `NC(=O)/C=C1\CN(C(=O)OCc2ccccc2)[C@@H]2C(=O)N(S(=O)(=O)O)[C@H]12` [14(b), (1S,5R)(E)-2-Benzyloxycarbonyl-4-carbamoylmethylene-7-oxo-2,6-diazabicyclo[3.2.0]heptane-6-sulphonic acid sodium salt], the IC50 rises from 22 nM to 65 nM (3-fold).

Compared with `COC(=O)/C=C1\CN(C(=O)OCc2ccccc2)[C@@H]2C(=O)N(S(=O)(=O)O)[C@H]12` [14(a), (1S,5R)-(E)-4-Methoxycarbonylmethylene-7-oxo-6-sulpho-2,6-diazabicyclo[3.2.0]heptane-2-carboxylic acid benzyl ester sodium salt], `NC(=O)/C=C1/CN(C(=O)OCc2ccccc2)[C@@H]2C(=O)N(S(=O)(=O)O)[C@H]12` [14(c), (1S,5R)(Z)-2-Benzyloxycarbonyl-4-carbamoylmethylene-7-oxo-2,6-diazabicyclo[3.2.0]heptane-6-sulphonic acid sodium salt] is 26-fold higher in IC50: 32 nM for the first, 826 nM for the second.

Going from `O=C(OCc1ccccc1)N1C[C@H](F)[C@@H]2[C@H]1C(=O)N2S(=O)(=O)O` [16(a), (1S,4S,5S)-4-Fluoro-7-oxo-6-sulpho-2,6-diazabicyclo[3.2.0]heptane-2-carboxylic acid benzyl ester sodium salt] to `O=C(OCc1ccccc1)N1C[C@@H](Cl)[C@@H]2[C@H]1C(=O)N2S(=O)(=O)O` [16(b), (1S,4R,5S)-2-Benzyloxycarbonyl-4-chloro-7-oxo-2,6-diazabicyclo[3.2.0]heptane-6-sulphonic acid sodium salt], the IC50 rises from 14 nM to 334 nM (24-fold).

Going from `O=C(OCc1ccccc1)N1C[C@@H](Cl)[C@@H]2[C@H]1C(=O)N2S(=O)(=O)O` [Example 15, (1S,4R,5S)-2-Benzyloxycarbonyl-4-chloro-7-oxo-2,6-diazabicyclo[3.2.0]heptane-6-sulphonic acid sodium salt] to `Cn1nnnc1S[C@@H]1CN(C(=O)OCc2ccccc2)[C@@H]2C(=O)N(S(=O)(=O)O)[C@@H]21` [Example 22, (1S,4R,5S)-2-Benzyloxycarbonyl-4-(1-methyl-1H-tetrazol-5-yl-thio)-7-oxo-2,6-diazabicyclo[3.2.0]heptane-6-sulphonic acid sodium salt], the IC50 falls from 630 nM to 220 nM (2.9-fold). The second is the more potent here.

Same assay, conditions: isolated β-lactamase of Citrobacter freundii; substrate nitrocefin 0.1 mM; 15 minutes pre-incubation with inhibitor; 37° C., pH 7.0; read-out: IC 50 nM

`O=C(c1cc2ccccc2[nH]1)N1CC[C@@H]2[C@H]1C(=O)N2S(=O)(=O)O` (racemic) [6(j)] and `CC(C)(C)OC(=O)N1CC[C@@H]2[C@H]1C(=O)N2S(=O)(=O)O` [1(b), sodium salt] are within 1.5-fold of each other in IC50: 280 nM for the first, 225 nM for the second.

Same assay, conditions: read-out: IC 50 nM; isolated β-lactamase of Citrobacter freundii; substrate nitrocefin 0.1 mM; 15 minutes pre-incubation with inhibitor; 37° C., pH 7.0

`O=C1[C@H](NC(=O)N2CC[C@@H]3[C@H]2C(=O)N3S(=O)(=O)O)CCN1O` [17(r), sodium salt] was tested, and the IC50 was 490 nM.

Each molecule was assayed on Citrobacter freundii (assay: MIC in vitro of a 1:4 combination of ceftriaxone with a compound of formula I (test D)). Conditions: 1:4 combination of ceftriaxone with the compound.
Format: cell-based
Description: D. Determination of the β-lactamase-inhibiting activity by combination of a compound of general formula I with ceftriaxone
The minimum inhibitory concentration in vitro (MIC in μg/ml) of a 1:4 combination of ceftriaxone with a compound of formula I against Citrobacter freundii is measured and compiled in Table 2 hereinafter.

Compared with `O=C(O)C(C(=O)N1CC[C@@H]2[C@H]1C(=O)N2S(=O)(=O)O)c1ccsc1` (mixture of isomers) [6(e), (R/S)-α-(1S,5R)-2-[2-carboxy-2-(3-thienyl)acetyl]-7-oxo-2,6-diazabicyclo[3.2.0]heptane-6-sulphonic acid triethylamine salt (1:1)], `CCN(CC)CC.Nc1nc(C(N)C(=O)N2CC[C@@H]3[C@H]2C(=O)N3S(=O)(=O)O)cs1` (mixture of isomers) [6(r), (1S,5R)-2-[DL-2-(2-Amino-4-thiazolyl)glycyl] -7-oxo-2,6-diazabicyclo[3.2.0]heptane-6-sulphonic acid triethylamine salt] is 2-fold lower in “MIC” value: 4 µg/mL for the first, 2 µg/mL for the second.

First: CC(=O)N/C(=C\c1ccccc1)C(=O)N1CC[C@@H]2[C@H]1C(=O)N2S(=O)(=O)[O-].[Na+] [5(f), (1S,5R)-2-[(Z)-3-α-Acetamidocinnamoyl]-7-oxo-2,6-diazabicyclo[3.2.0]heptane-6-sulphonic acid sodium salt]
Second: CSCC[C@@H](NC(=O)c1ccccc1)C(=O)N1CC[C@@H]2[C@H]1C(=O)N2S(=O)(=O)O.[Na] [5(h), (1S,5R)-2-[(R,S)-2-Benzamido-4-(methylthio)butyryl]-7-oxo-2,6-diazabicyclo[3.2.0]heptane-6-sulphonic acid sodium salt]
The “MIC” value of the first is 4-fold higher: 16 µg/mL for the first, 4 µg/mL for the second.

`O=C([C@H](O)c1ccccc1)N1CC[C@@H]2[C@H]1C(=O)N2S(=O)(=O)[O-].[Na+]` [6(k), (1S,5R)-2-[(R)-α-Hydroxyphenylacetyl]-7-oxo-2,6-diazabicyclo[3.4.0]heptane-6-sulphonic acid sodium salt (1:1)] and `CCN(CC)CC.O=C([C@@H](O)c1ccccc1)N1CC[C@@H]2[C@H]1C(=O)N2S(=O)(=O)O` [6(l), (1S,5R)-2-[(S)-α-Hydroxyphenylacetyl]-7-oxo-2,6-diazabicyclo[3.2.0]heptane-6-sulphonic triethylamine salt (1:1)] are the same in “MIC” value: 8 µg/mL for the first, 8 µg/mL for the second.

First: COC(=O)NN1CC[C@@H]2[C@H]1C(=O)N2S(=O)(=O)[O-].[Na+] [Example 18, Methyl (1S,5R)-7-oxo-6-sulpho-2,6-diazabicyclo[3.2.0]heptane-2-carbamate sodium salt]
Second: (1S,5R)-(E)-3-Phenyl-acryloyl-2,6-diazabicyclo[3.2.0]heptane-6-sulphonic acid sodium salt [11(a)]
The “MIC” value of the first is 8-fold lower: 1 µg/mL for the first, 8 µg/mL for the second.

Same assay, conditions: ceftriaxone alone (control), read-out: MIC

In the case of `CO/N=C(\C(=O)N[C@@H]1C(=O)N2C(C(=O)O)=C(CSc3nc(=O)c(=O)[nH]n3C)CS[C@H]12)c1csc(N)n1` [Ceftriaxone, ceftriaxone, reference compound], the MIC is reported as 128 µg/mL.
